Data on nine compounds can be found in ChEMBL document CHEMBL4765227, “Hit to lead optimization of a series of N-[4-(1,3-benzothiazol-2-yl)phenyl]acetamides as monoacylglycerol lipase inhibitors with potential anticancer activity” (Eur J Med Chem, 2016).

Assay type in all cases: functional
Holding throughout (conditions): read-out: GI

One assay has as its system 786-0. The assay can be described thus: Growth inhibition of human 786-0 cells at 10 uM incubated for 48 hrs by sulforhodamine B assay relative to control. (In general: Sulforhodamine B stains cellular protein and so reports cell mass.)
For a further assay, the system named is A498. Briefly: Growth inhibition of human A498 cells at 10 uM incubated for 48 hrs by sulforhodamine B assay relative to control.
Another assay has as its system OVCAR-5. Briefly: Growth inhibition of human OVCAR-5 cells at 10 uM incubated for 48 hrs by sulforhodamine B assay relative to control.
The next assay deals with NCI-H460. Briefly: Growth inhibition of human NCI-H460 cells at 10 uM incubated for 48 hrs by sulforhodamine B assay relative to control.
The subject of a further assay is COLO 205. The assay can be described thus: Growth inhibition of human COLO 205 cells at 10 uM incubated for 48 hrs by sulforhodamine B assay relative to control.
The subject of a further assay is Malme-3M. The assay can be described thus: Growth inhibition of human Malme-3M cells at 10 uM incubated for 48 hrs by sulforhodamine B assay relative to control.
The test system of another assay is NCI/ADR-RES. The assay can be described thus: Growth inhibition of human NCI/ADR-RES cells at 10 uM incubated for 48 hrs by sulforhodamine B assay relative to control.
The next assay relates to NCI-H322M. Briefly: Growth inhibition of human NCI-H322M cells at 10 uM incubated for 48 hrs by sulforhodamine B assay relative to control.
The next assay concerns IGROV-1. Briefly: Growth inhibition of human IGROV-1 cells at 10 uM incubated for 48 hrs by sulforhodamine B assay relative to control.
The next assay concerns Hs-578T. The assay can be described thus: Growth inhibition of human Hs-578T cells at 10 uM incubated for 48 hrs by sulforhodamine B assay relative to control.
In the next assay the test system is NCI-H226. The assay can be described thus: Growth inhibition of human NCI-H226 cells at 10 uM incubated for 48 hrs by sulforhodamine B assay relative to control.
A further assay has as its system OVCAR-3. The assay can be described thus: Growth inhibition of human OVCAR-3 cells at 10 uM incubated for 48 hrs by sulforhodamine B assay relative to control.
The next assay deals with SW-620. The assay can be described thus: Growth inhibition of human SW-620 cells at 10 uM incubated for 48 hrs by sulforhodamine B assay relative to control.
Another assay deals with EKVX. The assay can be described thus: Growth inhibition of human EKVX cells at 10 uM incubated for 48 hrs by sulforhodamine B assay relative to control.
In a further assay the test system is CAKI-1. Briefly: Growth inhibition of human CAKI-1 cells at 10 uM incubated for 48 hrs by sulforhodamine B assay relative to control.

As for `O=C(CNc1nnc(-c2ccc(Cl)cc2)o1)Nc1ccc(-c2nc3ccccc3s2)cc1`, the inhibition of growth at 10 µM in the assay on 786-0 is -1.02%; with A498, 18%; in the assay with OVCAR-5 it was -16.4%; in the assay on NCI-H460 it was 0.31%; with COLO 205, -4.34%; with Malme-3M, 11.3%. Besides, the inhibition of growth at 10 µM in the assay on NCI/ADR-RES amounted to 1.07%; with NCI-H322M, 4.86%; in the assay with IGROV-1, 5.85%; in the assay on Hs-578T it was 3.06%; in the assay with NCI-H226, 17.1%; with OVCAR-3 it was 2.27%. Further, the inhibition of growth at 10 µM in the assay on SW-620 is -9.76%; in the assay with EKVX it was -4.4%; in the assay with CAKI-1, -0.31%.
For `Cc1cc(C)n(CC(=O)Nc2ccc(-c3nc4ccccc4s3)cc2)n1`, the inhibition of growth at 10 µM in the assay on 786-0 was -5.8%; in the assay on A498, 5.37%; in the assay on OVCAR-5 it was -4.65%; in the assay with NCI-H460, -2.37%; in the assay on COLO 205, -12.4%; with Malme-3M, -7.85%. For the same compound, the inhibition of growth at 10 µM in the assay with NCI/ADR-RES is -2.56%; with NCI-H322M, 0.12%; in the assay on IGROV-1, 2.57%; in the assay with Hs-578T, -13.4%; in the assay with NCI-H226 it was -0.25%; in the assay on OVCAR-3, -1.21%. In addition, the inhibition of growth at 10 µM in the assay with SW-620 is -13.1%; in the assay on EKVX, -7.86%; with CAKI-1, -1.54%.
As to `Cc1cc(NCC(=O)Nc2ccc(-c3nc4ccccc4s3)cc2)no1`, the inhibition of growth at 10 µM with 786-0 was -1.59%; in the assay with A498, 10.3%; in the assay on OVCAR-5, -19%; in the assay on NCI-H460, -2.65%; with COLO 205 it was -7.78%; in the assay on Malme-3M, 10.5%. Further, the inhibition of growth at 10 µM in the assay with NCI/ADR-RES is -2.68%; with NCI-H322M, -1.5%; in the assay on IGROV-1, 11.5%; with Hs-578T it was -1.12%; in the assay on NCI-H226, 8.98%; with OVCAR-3, 0.7%. Also, the inhibition of growth at 10 µM with SW-620 is -13.2%; in the assay with EKVX it was -7.95%; in the assay with CAKI-1 it was -3.5%.
As for `O=C(Cn1ccc2ccccc21)Nc1ccc(-c2nc3ccccc3s2)cc1`, the inhibition of growth at 10 µM in the assay with 786-0 was -3.1%; in the assay with A498, 0.94%; in the assay on OVCAR-5 it was -3.94%; in the assay with NCI-H460, -4.62%; in the assay on COLO 205, -0.82%; with Malme-3M it was -8.06%. For the same compound, the inhibition of growth at 10 µM with NCI/ADR-RES was -0.33%; in the assay on NCI-H322M it was 1.19%; with IGROV-1, 26.2%; in the assay on Hs-578T, 2.29%; in the assay on NCI-H226, -2.24%; in the assay with OVCAR-3, -2.19%. The inhibition of growth at 10 µM with SW-620 is -6.47%; in the assay on EKVX it was -7.41%; with CAKI-1, -0.29%.
Turning to `O=C(Cn1cncn1)Nc1ccc(-c2nc3ccccc3s2)cc1`, the inhibition of growth at 10 µM is 4.38% in the assay with 786-0; 11.6% with A498; -15% with OVCAR-5; 2.97% in the assay with NCI-H460; -6.86% in the assay on COLO 205; -0.27% in the assay with Malme-3M. Moreover, the inhibition of growth at 10 µM is -1.6% in the assay with NCI/ADR-RES; -0.63% with NCI-H322M; 7.64% in the assay with IGROV-1; -3.42% in the assay with Hs-578T; 25% with NCI-H226; 8.95% in the assay with OVCAR-3. Further, the results for the inhibition of growth at 10 µM with SW-620, with EKVX and with CAKI-1 were -6.34%, 9.8% and 6.2%, respectively.
In the case of `O=C(Cn1cnc2ccccc21)Nc1ccc(-c2nc3ccccc3s2)cc1`, the inhibition of growth at 10 µM with 786-0 was 20.5%; in the assay with A498, 33.2%; in the assay with OVCAR-5 it was -5.63%; in the assay with NCI-H460, 34.3%; in the assay with COLO 205, 22.5%; with Malme-3M it was 18.9%. In addition, the inhibition of growth at 10 µM with NCI/ADR-RES turned out to be 38.9%; in the assay on NCI-H322M, 8.06%; in the assay on IGROV-1, 35.1%; with Hs-578T, 8.79%; in the assay with NCI-H226 it was 36.9%; with OVCAR-3 it was 35.8%. In addition, the inhibition of growth at 10 µM in the assay with SW-620 stood at 15.2%; with EKVX, 46.8%; with CAKI-1, 38.1%.
With `O=C(CNc1nc(-c2ccc(Cl)cc2)cs1)Nc1ccc(-c2nc3ccccc3s2)cc1`, the inhibition of growth at 10 µM in the assay with 786-0 was -9.09%; in the assay with A498, -2.14%; in the assay on OVCAR-5, 9.63%; in the assay on NCI-H460, 8.75%; in the assay with COLO 205, 6.21%; in the assay with Malme-3M, -1.86%. In addition, the inhibition of growth at 10 µM stood at 5.81% in the assay on NCI/ADR-RES; 8.37% with NCI-H322M; 40.9% with IGROV-1; 8.73% in the assay with Hs-578T; 19.7% in the assay with NCI-H226; 5.97% in the assay on OVCAR-3. Besides, the inhibition of growth at 10 µM is 0.12% with SW-620, -2.38% in the assay on EKVX and 5.79% in the assay on CAKI-1.
For the compound `O=C(CNc1nc2ccccc2s1)Nc1ccc(-c2nc3ccccc3s2)cc1`, the inhibition of growth at 10 µM was -1.86% in the assay with 786-0; 6.15% in the assay on A498; 1.6% in the assay with OVCAR-5; 0.21% with NCI-H460; -11.7% with COLO 205; 1.87% in the assay on Malme-3M. Also, the inhibition of growth at 10 µM with NCI/ADR-RES was -1.94%; in the assay with NCI-H322M, 7.75%; with IGROV-1, 33.4%; with Hs-578T it was -0.48%; with NCI-H226 it was 7.62%; with OVCAR-3, 2.04%. The figures for the inhibition of growth at 10 µM with SW-620, in the assay on EKVX and in the assay with CAKI-1 were -8.73%, -9.9% and -0.18%, respectively.
Turning to `CN1CCN(CC(=O)Nc2ccc(-c3nc4ccccc4s3)cc2)CC1`, the inhibition of growth at 10 µM stood at 21.3% in the assay with 786-0; 40.5% in the assay on A498; 27.1% with OVCAR-5; 15.3% in the assay with NCI-H460; 60.3% in the assay on COLO 205; 1.71% with Malme-3M. Further, the inhibition of growth at 10 µM was found to be 14.4% with NCI/ADR-RES; 22.1% in the assay with NCI-H322M; 19.4% with IGROV-1; 6.34% in the assay on Hs-578T; 3.83% in the assay on NCI-H226; 0.78% in the assay on OVCAR-3. The inhibition of growth at 10 µM in the assay on SW-620 was -2.26%; in the assay on EKVX, 16.3%; in the assay with CAKI-1 it was 26.5%.
